For orientation: IC50 means the midpoint of a concentration-inhibition curve.

Consider 25 compounds from patent US8124766B2, “Inhibitors of diacylglycerol acyltransferase” (Madrigal Pharmaceuticals, Inc., priority 2008, dated 2012).

Counter-ions that a name gives are not always drawn.

This test deals with DGAT. The test is described as follows: DGAT Phospholipid FlashPlate Assay. In kind it is biochemical. The following applies: DGAT pellet, DAG-coated PL-FlashPlate, 14C-Pal-CoA, 37° C. for 1 hour; read-out: DGAT Inhibition Activity IC50. The procedure: DGAT Phospholipid FlashPlate Assay
Materials for the assay were: PL-FlashPlate: Phospholipid FlashPlates from PerkinElmer, catalog number SMP108; DAG (1,2-Dioleoyl-sn-glycerol) 10 mM suspended in water containing 0.1% Triton X-100; ^14C-Pal-CoA (palmitoyl coenzyme A, [palmitoyl-1-^14C]) from PerkinElmer, catalog number NEC-555 with a specific activity of 55 mCi/mmol; and DGAT pellet, with a protein concentration of 9.85 mg/ml.
Aqueous buffers were prepared or purchased as follows: The coating buffer (CB) was purchased from PerkinElmer, catalog number SMP900A; the reaction buffer (RB) was 50 mM Tris-HCl, pH 7.5, 100 mM NaCl, 0.01% BSA in water; the washing buffer (WB) is 50 mM Tris-HCl, pH 7.5, 100 mM NaCl, 0.05% deoxycholic acid sodium salt in water; the dilution buffer (DB) was 50 mM Tris-HCl, pH 7.5, 100 mM NaCl, 1 mM EDTA, 0.2% Triton X-100 in water.
1,2-Dioleoyl-sn-glycerol (DAG, 10 mmoles) was diluted to 500 μM with coating buffer (CB). The diluted DAG solution was then added to 384-well PL-FlashPlates at 60 μl per well, and incubated at room temperature for 2 days. The coated plates were then washed twice with washing buffer (WB) before use. Test compounds were serial diluted to 2000, 666.7, 222.2, 74.1, 24.7, 8.2, 2.7 and 0.9 μM in 100% DMSO. Diluted compound were further diluted 10 fold with reaction buffer (RB). ^14C-Pal-CoA was diluted to 8.3 μM with RB. The DGAT pellet was diluted to 0.13 mg protein/ml with dilution buffer (DB) immediately before it was added to the PL-FlashPlates to start the reaction. 20 μl of the RB-diluted compounds (or 10% DMSO in RB for Total and Blank), 15 μl of RB diluted 14C-Pal-CoA and 15 μl of DB diluted DGAT pellet (DB without DGAT for Blanks) were transferred to each well of the PL-FlashPlates. The reaction mixtures were incubated at 37° C. for 1 hour. The reactions were stopped by washing 3 times with WB. Plates were sealed with Top-seal and read on a Topcount instrument.
Calculation of IC50: The IC50 values for each compound were generated using an Excel template. The Topcount rpm readings of Total and Blank were used as 0% and 100% inhibition. The percent inhibition values of reactions in the presence of compounds were calculated, and plotted against compound concentrations. All data were fitted into a Dose Response One Site model (4 parameter logistic model) as the following: (A+((B−A)/(1+((x/C)^D)))), with A and B as the bottom and top of the curve (highest and lowest inhibition), respectively, and C as IC50 and D as Hill Coefficient of the compound.
With `CCn1c(C(=O)Nc2ccc(N(C)C3CC3)nc2)cc2cc(Cl)ccc21` [Example 45, 5-Chloro-1-ethyl-1H-indole-2-carboxylic acid [6-(cyclopropyl-methyl-amino)-pyridin-3-yl]-amide], the half-maximal inhibitory concentration (IC50) was found to be 668 nM.

Turning to `CCOC(=O)N1CC[C@H](Nc2ccc(NC(=O)c3cc4cc(Br)ccc4n3CC)cn2)C1` [Example 50, (S)-3-{5-[(5-Bromo-1-ethyl-1H-indole-2-carbonyl)-amino]-pyridin-2-ylamino}-pyrrolidine-1-carboxylic acid ethyl ester hydrochloride], the half-maximal inhibitory concentration (IC50) amounted to 929 nM. With `CCOc1cccc2c1cc(C(=O)Nc1ccc(N3CCN(C(=O)[C@@H]4CCC[C@H]4C(=O)O)CC3)cc1)n2CC` [Example 31, (1R,2R)-2-(4-{4-[(4-Ethoxy-1-ethyl-1H-indole-2-carbonyl)-amino]-phenyl}-piperazine-1-carbonyl)-cyclopentanecarboxylic acid] the figure was 380 nM; with `CCn1c(C(=O)Nc2ccc(N3CCN(C(=O)OC(C)(C)C)CC3)nc2)cc2c(OCC(C)C)cccc21` [Example 12, 4-{5-[(1-Ethyl-4-isobutoxy-1H-indole-2-carbonyl)-amino]-pyridin-2-yl}-piperazine-1-carboxylic acid tert-butyl ester], 273 nM; with `CCn1c(C(=O)Nc2ccc(N3CCN(C(=O)OC(C)(C)C)CC3)nc2)cc2c(OC)cc(OC)cc21` [Example 16, 4-{5-[(1-Ethyl-4,6-dimethoxy-1H-indole-2-carbonyl)-amino]-pyridin-2-yl}-piperazine-1-carboxylic acid tert-butyl ester], 248 nM. As to `COc1cccc2c(C)c(C(=O)Nc3ccc(C4CCN(C(=O)[C@H]5CC[C@H](C(=O)O)CC5)CC4)cc3)[nH]c12` [Example 77, trans-4-(4-{4-[(7-Methoxy-3-methyl-1H-indole-2-carbonyl)-amino]phenyl}-piperidine-1-carbonyl)-cyclohexanecarboxylic acid], the half-maximal inhibitory concentration (IC50) is 57 nM. With `CCOC(=O)N1CC[C@H](Nc2ccc(NC(=O)c3cc4cc(Br)ccc4s3)cn2)C1` [Example 46, (S)-3-{5-[(5-Bromo-benzo[b]thiophene-2-carbonyl)-amino]pyridin-2-ylamino}-pyrrolidine-1-carboxylic acid ethyl ester hydrochloride] the figure was 303 nM; with `CCCOc1cccc2c1cc(C(=O)Nc1ccc(N3CCN(C(=O)CC(C)(C)C(=O)O)CC3)nc1)n2CC` [Example 11, 4-(4-{5-[(1-Ethyl-4-propoxy-1H-indole-2-carbonyl)-amino]-pyridin-2-yl}-piperazin-1-yl)-2,2-dimethyl-4-oxo-butyric acid], 105 nM; with `CCn1c(C(=O)Nc2ccc(N3CCN(C(=O)OC(C)(C)C)CC3)nc2)cc2c(Cl)c(Cl)ccc21` [Example 18, 4-{5-[(4,5-Dichloro-1-ethyl-1H-indole-2-carbonyl)-amino]-pyridin-2-yl}-piperazine-1-carboxylic acid tert-butyl ester], 255 nM.

With `COc1cccc2c(C)c(C(=O)Nc3ccc(N4CCN(C(=O)CC(C)(C)C(=O)O)CC4)cc3)[nH]c12` [Example 74, 4-(4-{4-[(7-Methoxy-3-methyl-1H-indole-2-carbonyl)-amino]-phenyl}-piperazin-1-yl)-2,2-dimethyl-4-oxo-butyric acid], the IC50 stood at 64 nM. With `COc1cccc2c(C)c(C(=O)Nc3ccc(N4CCN(C(=O)[C@H]5CCC[C@@H]5C(=O)O)CC4)cc3)[nH]c12` [Example 75, (1S,2S)-2-(4-{4-[(7-Methoxy-3-methyl-1H-indole-2-carbonyl)-amino]-phenyl}-piperazine-1-carbonyl)-cyclopentanecarboxylic acid] the figure was 372 nM; with `CC(C)(C)OC(=O)N1CCN(c2ccc(NC(=O)c3cc4cc(Br)ccc4s3)cn2)CC1` [Example 3, 4-{5-[(5-Bromo-benzo[b]thiophene-2-carbonyl)-amino]-pyridin-2-yl}-piperazine-1-carboxylic acid tert-butyl ester], 479 nM; with `CCn1c(C(=O)Nc2ccc(N3CCN(C(=O)[C@H]4CC[C@H](C(=O)O)CC4)CC3)nc2)cc2c(OC)cccc21` [Example 28, trans-4-(4-{5-[(1-Ethyl-4-methoxy-1H-indole-2-carbonyl)-amino]-pyridin-2-yl}-piperazine-1-carbonyl)-cyclohexanecarboxylic acid], 385 nM. With `CCOc1ccc2c(C)c(C(=O)Nc3ccc(N4CCN(C(=O)OC(C)(C)C)CC4)cc3)oc2c1OCC` [Example 78, 4-{4-[(6,7-Diethoxy-3-methyl-benzofuran-2-carbonyl)-amino]-phenyl}-piperazine-1-carboxylic acid tert-butyl ester], the IC50 was 848 nM. With `CCn1c(C(=O)Nc2ccc(N(C)CCOC)nc2)cc2cc(OC(F)(F)F)ccc21` [Example 33, 1-Ethyl-5-trifluoromethoxy-1H-indole-2-carboxylic acid {6-[(2-methoxy-ethyl)-methyl-amino]-pyridin-3-yl}-amide hydrochloride] the figure was 662 nM. On to `CCOC(=O)N1CC[C@H](Nc2ccc(NC(=O)c3cc4c(OC)c(OC)ccc4n3CC)cn2)C1` [Example 54, (S)-3-{5-[(1-Ethyl-4,5-dimethoxy-1H-indole-2-carbonyl)-amino]-pyridin-2-ylamino}pyrrolidine-1-carboxylic acid ethyl ester hydrochloride], for which the IC50 came to 309 nM. Consider `CCn1c(C(=O)Nc2ccc(N3CCN(C(=O)OC(C)(C)C)CC3)cc2)cc2c(Cl)c(Cl)ccc21` [Example 59, 4-{4-[(4,5-Dichloro-1-ethyl-1H-indole-2-carbonyl)-amino]-phenyl}-piperazine-1-carboxylic acid tert-butyl ester], for which the IC50 turned out to be 821 nM. With `COCCN(C)c1ccc(NC(=O)c2[nH]c3c(OC)cccc3c2C)cn1` [Example 72, 7-Methoxy-3-methyl-1H-indole-2-carboxylic acid {6-[(2-methoxy-ethyl)-methyl-amino]pyridin-3-yl}-amide] the figure was 117 nM. With `CC(C)(CC(=O)N1CCC(c2ccc(NC(=O)c3cc4c(Cl)cccc4s3)cc2)CC1)C(=O)O` [Example 25, 4-(4-{4-[(4-Chloro-benzo[b]thiophene-2-carbonyl)-amino]-phenyl}-piperidin-1-yl)-2,2-dimethyl-4-oxo-butyric acid] the figure was 127 nM. `CCOc1cccc2c1cc(C(=O)Nc1ccc(N3CCN(C(=O)OC(C)(C)C)CC3)nc1)n2CC` [Example 5, 4-{5-[(4-Ethoxy-1-ethyl-1H-indole-2-carbonyl)-amino]-pyridin-2-yl}-piperazine-1-carboxylic acid tert-butyl ester]: the 50% inhibitory concentration (IC50) was 180 nM. With `CC(C)(C)OC(=O)N1CCN(c2ccc(NC(=O)c3cc4c(Cl)cccc4s3)cc2)CC1` [Example 24, 4-{4-[(4-Chloro-benzo[b]thiophene-2-carbonyl)-amino]-phenyl}-piperazine-1-carboxylic acid tert-butyl ester] the figure was 512 nM; with `COc1cccc2c(C)c(C(=O)Nc3ccc(N4CCN(C(=O)[C@H]5CC[C@H](C(=O)O)CC5)CC4)cc3)[nH]c12` [Example 76, trans-4-(4-{4-[(7-Methoxy-3-methyl-1H-indole-2-carbonyl)-amino]-phenyl}-piperazine-1-carbonyl)-cyclohexanecarboxylic acid], 58 nM. With `CCn1c(C(=O)Nc2ccc(N(C)CCOC)nc2)cc2c(OC)cccc21` [Example 38, 1-Ethyl-4-methoxy-1H-indole-2-carboxylic acid {6-[(2-methoxy-ethyl)-methyl-amino]-pyridin-3-yl}-amide hydrochloride] the figure was 102 nM; with `CCOc1cccc2c1cc(C(=O)Nc1ccc(N3CCN(C(=O)CC(C)(C)C(=O)O)CC3)nc1)n2CC` [Example 6, 4-(4-{5-[(4-Ethoxy-1-ethyl-1H-indole-2-carbonyl)-amino]-pyridin-2-yl}-piperazin-1-yl)-2,2-dimethyl-4-oxo-butyric acid], 189 nM.

Consider `CCOC(=O)N1CCC(Oc2ccc(NC(=O)c3oc4ccccc4c3COC)cc2)C1` (stereo not shown) [Example 81, 3-{4-[(3-Methoxymethyl-benzofuran-2-carbonyl)-amino]-phenoxy}-pyrrolidine-1-carboxylic acid ethyl ester], for which the 50% inhibitory concentration (IC50) amounted to 720 nM.
